From US5028603A, “Ester-substituted thienotriazolodiazepine compounds and pharmaceutical uses thereof” (Yoshitomi Pharmaceutical Industries, Ltd., priority 1987, dated 1991)
≈ marks a conversion by molar mass, not a printed value. Counter-ions that a name gives are not always drawn. Like-named read-outs stand apart in the source and are kept apart here.

System: PAF-induced platelet aggregation
Test: Inhibitory effect on PAF-induced platelet aggregation in rabbits (in vitro test)
Format: cell-based
Settings: Oryctolagus cuniculus, read-out: Inhibition of PAF-induced platelet aggregation IC50
Description: Experiment 1: Inhibitory effect on platelet aggregation in rabbits (in vitro test)
Blood samples to which was added 1/10 volume of 3.8% sodium citrate solution were collected from rabbits. Platelet rich plasma (PRP) was prepared by centrifuging the blood sample at 200×g for 10 minutes, and platelet poor plasma (PPP) was prepared by centrifuging the remaining blood sample at 1000× g for 10 minutes.
Aggregation ability was measured with a turbidimetric device (6-channel NKK Hematracer 1, model PAT-6A) according to the method of G.V.R. Born described in J. Physiology, vol. 168, p. 178 (1963). The aggregometer was adjusted in sensitivity to give light transmission values of 0 and 100% for PRP and PPP, respectively. With stirring at 1000 rpm, 0.3 μl of test compound solution or solvent was added to 0.3 ml of PRP. After the mixture was kept at 37° C. for 2 minutes, to the mixture was added 3 μl synthetic PAF at the final concentration of 1.8×10^-7 M and the light transmission was recorded for 5 minutes.
The inhibition percentage of test compounds on platelet aggregation was calculated from the following formula by measuring the maximal light transmission in the presence and absence of the test compounds. [formula]
IC50 (μg/ml, concentration of 50% inhibition) was graphically determined.

Compound	IC50 (Platelet) [µg/mL]	IC50 (rabbit platelet rich plasma, 37° C., PAF final concentration 1.8×10^-7 M) [µg/mL]
Cc1nnc2n1-c1sc(C(C)OC(=O)C(C)(C)C)cc1C(c1ccccc1Cl)=NC2 (centres unmarked) [Example 14, 4-(2-chlorophenyl)-9-methyl-2(1-pivaloyloxyethyl)-6H-thieno[3,2-f][1,2,4]triazolo[4,3-a][1,4]diazepine]	0.2 (≈ 0.451 µM)	
CCc1cc2c(s1)-n1c(C)nnc1CN=C2c1ccccc1Cl [Etizolam, 6-(o-chlorophenyl)-8-ethyl-1-methyl-4H-s-triazolo [3,4c]thieno[2,3-e][1,4]diazepine, reference compound]	1.3 (≈ 3.79 µM)	
Cc1nnc2n1-c1sc(C(C)OC(=O)c3ccccc3)cc1C(c1ccccc1Cl)=NC2 (centres unmarked) [Example 13, 2-(1-benzoyloxyethyl)-4-(2-chlorophenyl)-9-methyl-6H-thieno[3,2-f][1,2,4]triazolo[4,3-a][1,4]diazepine.hydrochloride]	0.1 to 0.3	
Cc1ccccc1C1=NCc2nnc(C)n2-c2sc(C(C)OC(=O)C(C)c3ccc(CC(C)C)cc3)cc21 (centres unmarked) [Example 4, 2-(1-(2-(4-isobutylphenyl)propionyl)oxyethyl)-4-(2-methylphenyl)-9-methyl-6H-thieno[3,2-f][1,2,4]triazolo[4,3-a][1,4]diazepine]		0.03 to 0.1 (≈ 0.057 to 0.19 µM)
Cc1nnc2n1-c1sc(C(C)OC(=O)C(C)c3ccc(CC(C)C)cc3)cc1C(c1ccccc1Cl)=NC2 (centres unmarked) [Example 2, 2-(1-(2-(4-iso-butylphenyl)propionyl)oxyethyl)-4-(2-chlorophenyl)-9-methyl-6H-thieno[3,2-f][1,2,4]triazolo[4,3-a][1,4]diazepine]	0.01 to 0.03 (≈ 0.0183 to 0.0548 µM)	
